# Data taken from patent US20250312327A1, “COMPOSITION FOR COMBINATION THERAPY, COMPRISING 2,3,5-SUBSTITUTED THIOPHENE COMPOUND” (PHAROS IBIO CO., LTD, priority 2021, published 2025).
# Like-named read-outs stand apart in the source and are kept apart here.
# Experiments:
# Assay in all cases: CellTiter-Glo assay, drug administered alone
# Assay type in all cases: cell-based
# [1] = test system: BDCM leukemia cell line; details: 72 h
# Experimental: (§1) The first and second tests were performed in triplicate on the above cell lines while reducing the concentration of venetoclax by half each time from 100 μM, and the third test was performed in triplicate on the BDCM cell line while reducing the concentration of venetoclax by half each time from 100 μM, and performed in triplicate on HL-60, MolM13, MolM14, and MV4-11 cell lines while reducing the concentration of venetoclax by half each time from 2.5 μM. The fourth test was performed in triplicate on HL-60, MolM13, MolM14, and MV4-11 cell lines while reducing the concentration by half each time from 2.5 μM.
# (§2) Specifically, in the first and second tests, a 10-fold diluted solution was prepared by dissolving 50 μL of 10 mM venetoclax in 450 μL of solvent. 250 μL of the solution was serially diluted ½, an 8E-tube was filled with 250 μL of each dilution, and 80 μL of each cell line was dispensed into each well of a 96-well plate. Thereafter, 10 μL of each cell line was dispensed using JANUS and incubated for 72 hours under CO2. Celltiter-Glo assay was performed and then IC50 was calculated.
# (§3) In the third test, for the BCDM cell line, a 10-fold diluted solution was prepared by dissolving 15 μL of 10 mM venetoclax in 135 μL of solvent. 100 μL of the solution was serially diluted ½, an 8E-tube was filled with 100 μL of each dilution, and the cell line was dispensed into a 96-well plate. Thereafter, 25 μL of the cell line was dispensed using JANUS and incubated for 72 hours under CO2. Celltiter-Glo assay was performed and then IC50 was calculated. Meanwhile, for the HL-60, MolM13, MolM14, and MV4-11 cell lines, a 10-fold diluted solution was prepared by dissolving […] of solvent. 200 μL of the solution was serially diluted ½, an 8E-tube was filled with 200 μL of each dilution, and each of the cell lines was dispensed into a 96-well plate. Thereafter, 60 μL of each cell line was dispensed using JANUS and incubated for 72 hours under CO2. Celltiter-Glo assay was performed and then IC50 was calculated.
# (§4) The first and second tests were performed in triplicate on the above cell lines while reducing the concentration of 5-azacytidine by half each time from 100 μM. Specifically, in the first and second tests, a 10-fold diluted solution was prepared by dissolving 15 μL of 20 mM 5-azacytidine in 285 μL of solvent. 250 μL of the solution was serially diluted ½, an 8E-tube was filled with 250 μL of each dilution, and 80 μL of each cell line (3,000 cells) was dispensed into each well of a 96-well plate. Thereafter, 10 μL of each cell line was dispensed using JANUS and incubated for 72 hours under CO2. Celltiter-Glo assay was performed and then IC50 was calculated.
# as §4, with “cytarabine” for “5-azacytidine”, “50,000” for “100”, “10” for “15”, “50” for “20”, “490” for “285”
# [2] = test system: HL-60 leukemia cell line; details: Homo sapiens
# Experimental: as §1, §2, §3
# (§5) The fourth test was performed on HL-60, MolM13, MolM14, and MV4-11 cell lines in the same manner as the third test.
# as §4
# as §4, with “cytarabine” for “5-azacytidine”, “50,000” for “100”, “10” for “15”, “50” for “20”, “490” for “285”
# [3] = test system: MV4-11 leukemia cell line; details: Homo sapiens
# Experimental: as §1, §2, §3, §5, §4
# as §4, with “cytarabine” for “5-azacytidine”, “50,000” for “100”, “10” for “15”, “50” for “20”, “490” for “285”
# [4] = test system: MolM13 leukemia cell line; details: Homo sapiens
# Experimental: as §1, §2, §3, §5, §4
# as §4, with “cytarabine” for “5-azacytidine”, “50,000” for “100”, “10” for “15”, “50” for “20”, “490” for “285”
# [5] = test system: MolM14 leukemia cell line; details: Homo sapiens
# Experimental: as §1, §2, §3, §5, §4
# as §4, with “cytarabine” for “5-azacytidine”, “50,000” for “100”, “10” for “15”, “50” for “20”, “490” for “285”
# [6] = test system: THP-1 leukemia cell line; details: Homo sapiens, THP-1, 72 h
# Experimental: as §1, §2, §4
# as §4, with “cytarabine” for “5-azacytidine”, “50,000” for “100”, “10” for “15”, “50” for “20”, “490” for “285”
# [7] = test system: U937 leukemia cell line; details: Homo sapiens, U-937, 72 h
# Experimental: as §1, §2, §4
# as §4, with “cytarabine” for “5-azacytidine”, “50,000” for “100”, “10” for “15”, “50” for “20”, “490” for “285”
# [8] = test system: BDCM leukemia cell line
# [9] = test system: HL-60 leukemia cell line; details: Homo sapiens; remark: listed apart in the source
# [10] = test system: THP-1 leukemia cell line; details: Homo sapiens
# [11] = test system: U937 leukemia cell line; details: Homo sapiens
# [12] = 5-azacytidine alone, read-out: IC50 First test
# [13] = 5-azacytidine alone, read-out: IC50 Second test
# [14] = azacitidine administered alone, Table 10, read-out: IC50 Azacitidine
# [15] = cytarabine alone, read-out: IC50 First test
# [16] = cytarabine alone, read-out: IC50 Second test
# [17] = cytarabine administered alone, Table 13, read-out: IC50 Cytarabine
# [18] = venetoclax alone, read-out: IC50 First test
# [19] = venetoclax alone, read-out: IC50 Second test
# [20] = venetoclax administered alone, Table 7, read-out: IC50 Venetoclax
structure (smiles),measurement,setting,value
Nc1ncn([C@@H]2O[C@H](CO)[C@@H](O)[C@H]2O)c(=O)n1 [5-azacytidine],IC50,[1]; [12],14800 nM
same,IC50,[1]; [13],23600 nM
same,IC50,"[2]; HL-60, 72 h, 5-azacytidine alone, 72 hours, read-out: IC50 First test",14700 nM
same,IC50,"[2]; HL-60, 72 h, 5-azacytidine alone, 72 hours, read-out: IC50 Second test",13200 nM
same,IC50,"[3]; 5-azacytidine alone, 72 hours, read-out: IC50 First test",3050 nM
same,IC50,"[3]; 5-azacytidine alone, 72 hours, read-out: IC50 Second test",2450 nM
same,IC50,[3]; [14],2050 nM
same,IC50,"[4]; MOLM-13, 5-azacytidine alone, MolM13, 72 hours, read-out: IC50 First test",1710 nM
same,IC50,"[4]; MOLM-13, 5-azacytidine alone, MolM13, 72 hours, read-out: IC50 Second test",1410 nM
same,IC50,"[4]; azacitidine administered alone, MolM 13, Table 10, read-out: IC50 Azacitidine",1380 nM
same,IC50,"[5]; MOLM-14, 72 h, 5-azacytidine alone, MolM14, 72 hours, read-out: IC50 First test",3880 nM
same,IC50,"[5]; MOLM-14, 72 h, 5-azacytidine alone, MolM14, 72 hours, read-out: IC50 Second test",2820 nM
same,IC50,"[5]; MOLM-14, azacitidine administered alone, MolM 14, Table 10, read-out: IC50 Azacitidine",1590 nM
same,IC50,[6]; [12],6080 nM
same,IC50,[6]; [13],6380 nM
same,IC50,[7]; [12],1910 nM
same,IC50,[7]; [13],2540 nM
same,IC50,[8]; [14],98200 nM
same,IC50,"[9]; HL-60, azacitidine administered alone, Table 10, read-out: IC50 Azacitidine",9660 nM
same,IC50,"[10]; THP-1, azacitidine administered alone, Table 10, read-out: IC50 Azacitidine",3380 nM
same,IC50,"[11]; U-937, azacitidine administered alone, Table 10, read-out: IC50 Azacitidine",3060 nM
Nc1ccn([C@@H]2O[C@H](CO)[C@@H](O)[C@@H]2O)c(=O)n1 [Cytarabine],IC50,[1]; [15],2830 nM
same,IC50,[1]; [16],4480 nM
same,IC50,"[2]; HL-60, 72 h, cytarabine alone, 72 hours, read-out: IC50 First test",221 nM
same,IC50,"[2]; HL-60, 72 h, cytarabine alone, 72 hours, read-out: IC50 Second test",163 nM
same,IC50,[3]; [17],81 nM
same,IC50,"[3]; cytarabine alone, 72 hours, read-out: IC50 First test",100 nM
same,IC50,"[3]; cytarabine alone, 72 hours, read-out: IC50 Second test",108 nM
same,IC50,"[4]; MOLM-13, cytarabine alone, MolM13, 72 hours, read-out: IC50 First test",39 nM
same,IC50,"[4]; MOLM-13, cytarabine alone, MolM13, 72 hours, read-out: IC50 Second test",41.8 nM
same,IC50,"[4]; cytarabine administered alone, MolM 13, Table 13, read-out: IC50 Cytarabine",29.6 nM
same,IC50,"[5]; MOLM-14, 72 h, cytarabine alone, MolM14, 72 hours, read-out: IC50 First test",99 nM
same,IC50,"[5]; MOLM-14, 72 h, cytarabine alone, MolM14, 72 hours, read-out: IC50 Second test",93.3 nM
same,IC50,"[5]; MOLM-14, cytarabine administered alone, MolM 14, Table 13, read-out: IC50 Cytarabine",84.7 nM
same,IC50,[6]; [15],11.2 nM
same,IC50,[6]; [16],15.3 nM
same,IC50,[7]; [15],18.3 nM
same,IC50,[7]; [16],18.4 nM
same,IC50,[8]; [17],2340 nM
same,IC50,"[9]; HL-60, cytarabine administered alone, Table 13, read-out: IC50 Cytarabine",170 nM
same,IC50,"[10]; THP-1, cytarabine administered alone, Table 13, read-out: IC50 Cytarabine",10.6 nM
same,IC50,"[11]; U-937, cytarabine administered alone, Table 13, read-out: IC50 Cytarabine",9.25 nM
CC1(C)CCC(CN2CCN(c3ccc(C(=O)NS(=O)(=O)c4ccc(NCC5CCOCC5)c([N+](=O)[O-])c4)c(Oc4cnc5[nH]ccc5c4)c3)CC2)=C(c2ccc(Cl)cc2)C1 [Venetoclax],IC50,[1]; [18],12200 nM
same,IC50,[1]; [19],9860 nM
same,IC50,"[1]; venetoclax alone, read-out: IC50 Third test",12800 nM
same,IC50,"[2]; HL-60, 72 h, venetoclax alone, 72 hours, read-out: IC50 First test",353 nM
same,IC50,"[2]; HL-60, 72 h, venetoclax alone, 72 hours, read-out: IC50 Fourth test",276 nM
same,IC50,"[2]; HL-60, 72 h, venetoclax alone, 72 hours, read-out: IC50 Second test",210 nM
same,IC50,"[2]; HL-60, 72 h, venetoclax alone, 72 hours, read-out: IC50 Third test",283 nM
same,IC50,"[2]; HL-60, venetoclax alone, read-out: IC50",≤ 1000 nM
same,IC50,[3]; [20],13.7 nM
same,IC50,"[3]; venetoclax alone, 72 hours, read-out: IC50 First test",6.8 nM
same,IC50,"[3]; venetoclax alone, 72 hours, read-out: IC50 Fourth test",14.1 nM
same,IC50,"[3]; venetoclax alone, 72 hours, read-out: IC50 Second test",8.7 nM
same,IC50,"[3]; venetoclax alone, 72 hours, read-out: IC50 Third test",21.9 nM
same,IC50,"[3]; venetoclax alone, read-out: IC50",≤ 1000 nM
same,IC50,"[4]; MOLM-13, venetoclax alone, MolM13, 72 hours, read-out: IC50 First test",1.8 nM
same,IC50,"[4]; MOLM-13, venetoclax alone, MolM13, 72 hours, read-out: IC50 Fourth test",10.3 nM
same,IC50,"[4]; MOLM-13, venetoclax alone, MolM13, 72 hours, read-out: IC50 Second test",12.5 nM
same,IC50,"[4]; MOLM-13, venetoclax alone, MolM13, 72 hours, read-out: IC50 Third test",8.6 nM
same,IC50,"[4]; MOLM-13, venetoclax alone, MolM13, read-out: IC50",≤ 1000 nM
same,IC50,"[4]; venetoclax administered alone, MolM 13, Table 7, read-out: IC50 Venetoclax",14.6 nM
same,IC50,"[5]; MOLM-14, 72 h, venetoclax alone, MolM14, 72 hours, read-out: IC50 First test",172 nM
same,IC50,"[5]; MOLM-14, 72 h, venetoclax alone, MolM14, 72 hours, read-out: IC50 Fourth test",219 nM
same,IC50,"[5]; MOLM-14, 72 h, venetoclax alone, MolM14, 72 hours, read-out: IC50 Second test",415 nM
same,IC50,"[5]; MOLM-14, 72 h, venetoclax alone, MolM14, 72 hours, read-out: IC50 Third test",147 nM
same,IC50,"[5]; MOLM-14, venetoclax administered alone, MolM 14, Table 7, read-out: IC50 Venetoclax",283 nM
same,IC50,"[5]; MOLM-14, venetoclax alone, MolM14, read-out: IC50",≤ 1000 nM
same,IC50,[6]; [18],12500 nM
same,IC50,[6]; [19],12500 nM
same,IC50,[7]; [18],7310 nM
same,IC50,[7]; [19],8320 nM
same,IC50,[8]; [20],11000 nM
same,IC50,"[9]; HL-60, venetoclax administered alone, Table 7, read-out: IC50 Venetoclax",275 nM
same,IC50,"[10]; THP-1, venetoclax administered alone, Table 7, read-out: IC50 Venetoclax",12500 nM
same,IC50,"[11]; U-937, venetoclax administered alone, Table 7, read-out: IC50 Venetoclax",7800 nM
